Tests used:
[1] = target: Alpha-N-acetylglucosaminidase (Homo sapiens) (UniProt P54802); test: Inhibition of alpha-hexosaminidase in human PBMC using 4-methylumbelliferyl 2-acetamido-2-deoxy-alpha-D-glucopyranoside as substrate at pH 4.3 after 17 hrs by fluorescence assay
[2] = target: Alpha-N-acetylglucosaminidase (Homo sapiens) (UniProt P54802); test: Inhibition of alpha-hexosaminidase (unknown origin)

Sequence of Alpha-N-acetylglucosaminidase (Homo sapiens) (P54802 whole entry, looked up): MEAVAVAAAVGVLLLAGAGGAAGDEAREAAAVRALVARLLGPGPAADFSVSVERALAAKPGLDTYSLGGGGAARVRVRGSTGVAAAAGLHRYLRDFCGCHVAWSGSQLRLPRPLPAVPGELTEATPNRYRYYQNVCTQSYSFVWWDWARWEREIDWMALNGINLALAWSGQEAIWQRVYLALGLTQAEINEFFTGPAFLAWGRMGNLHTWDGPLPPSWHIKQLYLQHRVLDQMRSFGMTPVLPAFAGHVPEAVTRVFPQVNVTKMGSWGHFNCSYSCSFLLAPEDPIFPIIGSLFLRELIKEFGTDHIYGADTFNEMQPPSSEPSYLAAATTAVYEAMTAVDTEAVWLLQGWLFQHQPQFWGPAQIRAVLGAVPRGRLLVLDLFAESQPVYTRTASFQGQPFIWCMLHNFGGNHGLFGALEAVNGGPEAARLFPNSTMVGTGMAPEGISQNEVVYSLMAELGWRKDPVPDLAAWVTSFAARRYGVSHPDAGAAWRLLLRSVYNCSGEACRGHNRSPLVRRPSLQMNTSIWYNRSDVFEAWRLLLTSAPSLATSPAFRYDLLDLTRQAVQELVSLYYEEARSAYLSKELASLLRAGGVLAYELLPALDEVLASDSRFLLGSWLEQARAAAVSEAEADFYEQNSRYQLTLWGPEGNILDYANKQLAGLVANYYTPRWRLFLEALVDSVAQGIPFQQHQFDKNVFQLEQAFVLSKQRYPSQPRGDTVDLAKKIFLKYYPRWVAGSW

Row | IC50 [1] [nM] | IC50 [2] [nM] | SMILES
1 | > 160000 |  | CCCCC[C@H]1NC[C@@H](O)[C@@H](O)[C@H]1CO
2 |  | 100 | CC(=O)N[C@@H]1[C@@H](O)[C@H](O)[C@@H](CO)N[C@@H]1COCCCCc1ccccc1
